Converted amounts (≈) assume the structure as drawn. Some results are limits rather than exact numbers.

The values that follow come from patent US8148372B2 (AstraZeneca AB, priority 2008, dated 2012).

The nature of data set [1]: Solubility in pH 7.4 phosphate buffer. The class given is physicochemical. To be noted: aqueous buffer, thermodynamic from solid, equilibration 24 h at 25° C., HPLC-UV and LC-MSMS. Here is the method:
Solubility was determined in pH 7.4 phosphate buffer after equilibration for 24 h at 25° C. and HPLC-UV and LC-MSMS were used for quantitation.

The next data set has as its target T1, human mGluR2 (Homo sapiens, UniProt Q14416).
T1 construct: expressed in transfected cells; host or cells: CHO cells, stably transfected; membranes
The experiment in a line: [35S]-GTPγS binding assay, membranes from CHO cells stably expressing human mGluR2. The class given is biochemical. To be noted: for Emax: 0.5 h, Emax relative to the maximum glutamate effect, 1 μM glutamate, read-out: Hu GTPgS Median Top Effect; for EC50: allosteric activator activity in presence of 1 μM glutamate, CHO membranes, human mGluR2, read-out: Hu GTPgS EC50. As for the experimental part:
A [^35S]-GTPγS binding assay was used to functionally assay mGluR2 receptor activation. The allosteric activator activity of compounds at the human mGluR2 receptor were measured using a [^35S]-GTPγS binding assay with membranes prepared from CHO cells that stably express the human mGluR2. The assay is based upon the principle that agonists bind to G-protein coupled receptors to stimulate GDP-GTP exchange at the G-protein. Since [^35S]-GTPγS is a non-hydrolyzable GTP analog, it can be used to provide an index of GDP-GTP exchange and, thus, receptor activation. The GTPγS binding assay therefore provides a quantitative measure of receptor activation.
Membranes were prepared from CHO cells stably transfected with human mGluR2. Membranes (30 μg protein) were incubated with test compound (3 nM to 300 μM) for 15 minutes at room temperature prior to the addition of 1 μM glutamate, and incubated for 30 min at 30° C. in 500 μl assay buffer (20 mM HEPES, 100 mM NaCl, 10 mM MgCl2), containing 30 μM GDP and 0.1 nM [^35S]-GTPγS (1250 Ci/mmol). Reactions were carried out in triplicate in 2 ml polypropylene 96-well plates. Reactions were terminated by vacuum filtration using a Packard 96-well harvester and Unifilter-96, GF/B filter microplates. The filter plates were washed 4×1.5 ml with ice-cold wash buffer (10 mM sodium phosphate buffer, pH 7.4). The filter plates were dried and 35 μl of scintillation fluid (Microscint 20) was added to each well. The amount of radioactivity bound was determined by counting plates on the Packard TopCount. Data was analyzed using GraphPad Prism, and EC50 and Emax values (relative to the maximum glutamate effect) were calculated using non-linear regression.

A further data set concerns the target hERG ion channel (Homo sapiens, UniProt Q12809). The experiment in a line: hERG activity (process of Bridgland-Taylor et al.). The class given is cell-based. As for the experimental part: hERG activity was assessed using the process described by Bridgland-Taylor, M. H., et al, J. Pharm. Tox. Methods 54 (2006) 189-199.

T1 sequence (Q14416 19-872): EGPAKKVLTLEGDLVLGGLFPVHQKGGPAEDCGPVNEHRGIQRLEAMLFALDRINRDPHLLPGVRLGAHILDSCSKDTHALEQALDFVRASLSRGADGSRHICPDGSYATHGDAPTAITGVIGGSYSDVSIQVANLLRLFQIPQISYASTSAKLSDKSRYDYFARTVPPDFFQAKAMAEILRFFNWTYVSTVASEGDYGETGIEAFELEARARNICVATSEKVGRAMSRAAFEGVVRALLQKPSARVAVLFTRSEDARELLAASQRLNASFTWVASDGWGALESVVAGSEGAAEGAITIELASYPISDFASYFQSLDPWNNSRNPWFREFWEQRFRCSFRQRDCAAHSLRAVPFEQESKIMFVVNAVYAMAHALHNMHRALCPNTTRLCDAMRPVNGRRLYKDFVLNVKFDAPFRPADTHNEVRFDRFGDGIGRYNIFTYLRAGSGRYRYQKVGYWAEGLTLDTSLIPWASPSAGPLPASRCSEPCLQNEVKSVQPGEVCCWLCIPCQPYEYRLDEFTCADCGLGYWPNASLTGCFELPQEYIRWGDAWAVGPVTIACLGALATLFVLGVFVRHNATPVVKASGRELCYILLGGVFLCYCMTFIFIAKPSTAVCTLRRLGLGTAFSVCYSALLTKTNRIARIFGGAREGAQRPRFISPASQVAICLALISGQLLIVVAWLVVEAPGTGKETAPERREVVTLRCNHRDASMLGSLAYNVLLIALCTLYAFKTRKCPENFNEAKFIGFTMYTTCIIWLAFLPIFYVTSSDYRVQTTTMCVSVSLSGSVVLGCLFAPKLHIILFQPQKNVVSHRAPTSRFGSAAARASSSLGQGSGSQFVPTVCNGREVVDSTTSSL
Chain of hERG ion channel (Q12809 whole entry): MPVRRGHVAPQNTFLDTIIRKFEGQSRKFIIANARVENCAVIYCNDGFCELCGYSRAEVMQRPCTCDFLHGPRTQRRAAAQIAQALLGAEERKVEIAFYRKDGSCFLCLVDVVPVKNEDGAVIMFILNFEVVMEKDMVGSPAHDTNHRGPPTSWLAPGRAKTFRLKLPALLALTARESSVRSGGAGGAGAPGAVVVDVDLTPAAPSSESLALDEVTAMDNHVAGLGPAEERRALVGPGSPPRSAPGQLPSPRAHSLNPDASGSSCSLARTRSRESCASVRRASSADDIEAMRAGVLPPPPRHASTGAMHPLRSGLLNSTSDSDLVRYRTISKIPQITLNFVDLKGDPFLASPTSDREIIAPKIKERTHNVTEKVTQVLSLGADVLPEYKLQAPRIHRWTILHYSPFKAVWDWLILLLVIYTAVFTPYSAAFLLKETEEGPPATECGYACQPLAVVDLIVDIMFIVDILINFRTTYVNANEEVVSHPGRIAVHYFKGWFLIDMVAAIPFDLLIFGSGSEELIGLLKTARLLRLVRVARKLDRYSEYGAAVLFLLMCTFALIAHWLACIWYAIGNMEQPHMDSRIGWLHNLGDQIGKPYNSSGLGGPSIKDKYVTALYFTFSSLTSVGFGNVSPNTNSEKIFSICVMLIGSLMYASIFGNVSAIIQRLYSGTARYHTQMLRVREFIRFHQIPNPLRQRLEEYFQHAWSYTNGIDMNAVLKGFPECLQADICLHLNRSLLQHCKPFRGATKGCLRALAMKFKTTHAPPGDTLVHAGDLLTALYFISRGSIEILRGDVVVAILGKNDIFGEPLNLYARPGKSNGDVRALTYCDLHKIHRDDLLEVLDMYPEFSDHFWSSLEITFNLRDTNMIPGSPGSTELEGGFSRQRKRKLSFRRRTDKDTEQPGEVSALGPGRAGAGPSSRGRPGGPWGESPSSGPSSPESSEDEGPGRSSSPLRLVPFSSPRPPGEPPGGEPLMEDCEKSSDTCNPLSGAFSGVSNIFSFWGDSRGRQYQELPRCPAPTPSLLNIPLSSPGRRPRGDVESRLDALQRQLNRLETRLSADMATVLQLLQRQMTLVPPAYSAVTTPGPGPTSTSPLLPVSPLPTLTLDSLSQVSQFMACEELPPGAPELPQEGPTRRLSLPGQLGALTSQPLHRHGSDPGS

As for `C[C@@H](C1CC1)N1Cc2cc(-c3cc(C(=O)N(C)C)no3)cc(Cl)c2C1=O` [Example 1, 5-(7-chloro-2-((S)-1-cyclopropylethyl)-1-oxo-2,3-dihydro-1H-isoindolin-5-yl)-N,N-dimethylisoxazole-3-carboxamide], the melting point was determined as 143.5 °C. Further, in data set [1], the solubility at 24 h amounted to 33.4 µM (≈ 12.5 µg/mL). Moreover, on human mGluR2, the Emax was 127% and the EC50 was found to be 64 nM. For the same compound, on hERG ion channel, the concentration for half-maximal inhibition (IC50) was greater than 33000 nM.

Turning to `CNC(=O)c1cc(-c2cc(Cl)c3c(c2)CN([C@@H](C)C2CC2)C3=O)on1` [Example 2, 5-(7-chloro-2-((S)-1-cyclopropylethyl)-1-oxo-2,3-dihydro-1H-isoindolin-5-yl)-N-methylisoxazole-3-carboxamide], the melting point was found to be 212.3 °C. In addition, the solubility at 24 h in data set [1] was 6.82 µM (≈ 2.45 µg/mL). Moreover, on human mGluR2, the Emax is 114% and the concentration for a half-maximal effect (EC50) came out at 600 nM. The concentration for half-maximal inhibition (IC50) against hERG ion channel came out at 21000 nM.
